Experimental data published in patent US11371097B2, “Articles for diagnosis of liver fibrosis” (THE GOVERNMENT OF THE UNITED STATES, as represented by THE …, priority 2015, dated 2022).
Several values for one entry are separate records, joined by “and”; a condition that tells them apart may be missing. Identical values can stand only once.

How the values were obtained:
[1] = test system: liver; format: in vivo, Male Sprague-Dawley rats
[2] = format: in vivo, Male Sprague-Dawley rats; conditions: rat, in vivo
[3] = test system: 67 genes on the fibrosis gene panel; assay: Multiplexed fibrosis gene panel (QuantiGene 2.0 Plex / Bioplex) on liver RNA; conditions: liver RNA, individual animals; Carbon Tetrachloride 200, Bromobenzene 785, Dexamethasone 1 mg/kg

C[C@@H]1C[C@H]2[C@@H]3CCC4=CC(=O)C=C[C@]4(C)[C@@]3(F)[C@@H](O)C[C@]2(C)[C@@]1(O)C(=O)CO [dexamethasone]
Tissue necrosis ([1]; highest dose (300 mg/kg)): moderate tissue necrosis affecting >60-80% of the tissue in two animals
Combined histopathological scores as percent of animals with pathology ([1]; rat, in vivo): dose-dependent increase in severe pathology
Cytoplasmic Alteration ([1]; rat, in vivo): marked cytoplasmic alteration characteristic of glycogen accumulation
Histopathological evidence of vacuolation and/or glycogen accumulation ([1]; rat, in vivo): correlated with histopathological evidence of vacuolation and/or glyocgen accumulation
Body weight change [2]: Body weight loss occurred at all doses
Body weight gain over the five experimental dosing days [2]: decrease in body weight gain
Differential Expression of A2m [3]: −1.370 and −0.649 and −0.615 and −0.252
Differential Expression of Angptl3 [3]: 0.029 and −0.467 and −0.241
Differential Expression of Anxa2 [3]: 0.519 and 0.194 and −0.132 and 0.293
Differential Expression of Apoc [3]: −0.250 and −0.067 and −0.469 and −0.542
Differential Expression of Arf6 [3]: −0.268 and −0.346 and −0.401 and 0.005
Differential Expression of Arpc1b [3]: −1.391 and −2.770 and −5.994 and −0.172
Differential Expression of Arrb1 [3]: −0.840 and −2.152 and −3.043 and 0.703
Differential Expression of C1qb [3]: −0.174 and −0.655 and −0.257 and −0.222
Differential Expression of CD9 [3]: 0.155 and −0.656 and −0.280 and 0.387
Differential Expression of CD53 [3]: −0.716 and −3.901 and −5.862 and 0.006
Differential Expression of CP [3]: −0.134 and −0.634 and −0.952 and −0.558
Differential Expression of Capg [3]: −0.558 and −0.744 and −0.772 and −0.404
Differential Expression of Ccl2 [3]: −0.272 and 0.250 and 0.043 and 1.019
Differential Expression of Col1a1 [3]: −4.640 and −3.775 and −5.473 and −0.928
Differential Expression of Col1a2 [3]: −0.960 and −1.057 and −2.208 and −1.081
Differential Expression of Col4a1 [3]: −1.039 and −1.035 and −1.397 and −0.880
Differential Expression of Col5a2 [3]: −0.407 and −0.910 and −2.382 and 0.311
Differential Expression of Ctgf [3]: −0.755 and 0.747 and −0.663 and 0.405
Differential Expression of Cxcl1 [3]: 0.104 and 1.127 and 0.364 and 0.097
Differential Expression of Cxcl12 [3]: −1.808 and −3.742 and −2.144 and −1.869
Differential Expression of Cxcl16 [3]: −0.537 and −4.885 and 0.714
Differential Expression of Cyba [3]: −0.998 and −1.793 and −1.244 and −0.956
Differential Expression of Dsc2 [3]: −0.209 and −0.593 and −0.466 and −0.248
Differential Expression of Fam102b [3]: −0.462 and −0.124 and −0.822 and −0.262
Differential Expression of Fam105a [3]: −0.295 and 0.195 and −0.809 and −0.294
Differential Expression of Fbn1 [3]: −1.213 and −1.784 and −2.160 and −1.736
Differential Expression of Fn1 [3]: 0.397 and 0.181 and −0.334 and −0.170
Differential Expression of Fstl1 [3]: −1.085 and −1.346 and −1.183 and −0.931
Differential Expression of Fxyd5 [3]: −0.247 and −0.412 and −0.305
Differential Expression of Gpnmb [3]: −0.018 and 1.304 and 0.968 and 1.447
Differential Expression of Igfals [3]: −0.678 and −2.820 and −1.013 and −1.310
Differential Expression of Igfbp1 [3]: 1.132 and 1.740 and 0.780 and 0.489
Differential Expression of Igfbp2 [3]: −0.258 and −0.949 and −1.156 and −0.041
Differential Expression of Igfbp3 [3]: −1.125 and −1.454 and −2.523 and −1.663
Differential Expression of Itga1 [3]: −2.088 and −3.379 and −2.849 and −1.903
Differential Expression of Itgb2 [3]: −1.330 and −2.265 and −1.982 and −0.802
Differential Expression of Lame2 [3]: −0.132 and 0.260 and −1.038 and 0.536
Differential Expression of Lbp [3]: 0.344 and −0.042 and 0.261 and −0.020
Differential Expression of Len2 [3]: −0.470 and 0.418 and 0.883 and 0.535
Differential Expression of Lgals1 [3]: 0.458 and −4.140 and −0.346 and 0.583
Differential Expression of Lgals3 [3]: 0.011 and 0.320 and 0.370 and 0.526
Differential Expression of Lgals3bp [3]: −1.477 and −0.782 and −1.281 and −0.669
Differential Expression of Lox [3]: 0.278 and 0.412 and −0.164
Differential Expression of Lrp1 [3]: −0.206 and −0.631 and −0.863 and −0.371
Differential Expression of Lum [3]: 0.593 and 0.401 and −0.997 and −0.078
Differential Expression of Mmp2 [3]: −0.245 and −1.273 and −0.990 and −0.583
Differential Expression of Nid1 [3]: −1.271 (2×) and −1.374 and −1.155
Differential Expression of Pcolce [3]: −1.293 and −1.196 and −1.572 and −0.246
Differential Expression of Pkm2 [3]: −0.668 and −0.611 and −0.735 and −0.472
Differential Expression of Plat [3]: 0.103 and 0.075 and −0.461 and −0.335
Differential Expression of Plau [3]: −0.719 and −2.088 and −1.424 and −0.095
Differential Expression of Plod2 [3]: −0.065 and 0.269 and −0.568 and −0.077
Differential Expression of RT1-DMa [3]: 3.152 and 2.497 and 3.371 and 2.417
Differential Expression of RT1-Da [3]: −4.927 and −7.563 and −4.272 and −3.443
Differential Expression of S100A6 [3]: 0.650 and −0.047 and 0.843 and 0.695
Differential Expression of S100A11 [3]: −0.377 and −0.570 and −0.732 and −0.465
Differential Expression of Serpine1 [3]: 0.251 and 1.560 and 0.110 and 0.038
Differential Expression of Serping1 [3]: 0.154 and 0.026 and −0.228 and 0.065
Differential Expression of Slc25a24 [3]: −0.387 and −0.565 and −0.427
Differential Expression of Sod2 [3]: −0.398 and −0.428 and −0.371 and −0.367
Differential Expression of TagIn2 [3]: −0.486 and −0.918 and −0.563 and −0.566
Differential Expression of Tgfb1 [3]: −1.193 and −1.526 and −1.328 and −1.429
Differential Expression of Timp1 [3]: 0.026 and 0.464 and −0.134 and 1.004
Differential Expression of Vhl [3]: −0.300 and −1.037 and −0.787 and 0.504
Differential Expression of Vim [3]: −0.856 and −1.292 and −1.277
Differential Expression of Vtn [3]: −0.111 and −0.294 and −0.579 and −0.572
